Columns and labels:
hIL-6 mRNA = assay: Inhibition of hIL-6 mRNA transcription in LPS-stimulated U937 macrophages; assay type: cell-based, human; parameters: key: Active: Compounds with an IC50 value less than 30 μM are deemed to be active; conditions: U937 differentiated into macrophages, 1 h pretreatment, lipopolysaccharide 3 h
In short: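 U937 cells differentiated 3 days with 60 ng/mL PMA, pretreated 1 h with compound, then stimulated with […] E. coli LPS for 3 h at 37° C. hIL-6 mRNA quantified by one-step real-time RT-PCR, Ct normalised to internal control and expressed as fold induction relative to control.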

Human AML MV-4-11 cells = assay: Inhibition of cell proliferation in cancer cell lines (CellTiter Aqueous One); assay type: cell-based; parameters: key: Active: Compounds with an IC50 value less than 30 μM were deemed to be active.; Not Active: Compounds with an IC50 value less than 30 μM were deemed to be active; conditions: 72 hours
In short: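 Exponentially growing MV-4-11 cells were treated immediately with two-fold compound dilutions from 30 µM to 0.2 µM in triplicate for 72 h at 37 °C. Viability was read by MTS (CellTiter Aqueous One) absorbance at 490 nm after 3-4 h; % proliferation vs DMSO gave IC50.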

Brd4 bromodomain 1 = target: T1, Brd4 bromodomain 1 (Homo sapiens, UniProt O60885); assay: Inhibition of tetra-acetylated histone H4 binding to BET bromodomains (TR-FRET); parameters: key: Active: Compounds with an IC50 value less than 30 μM were deemed to be active.; Not Active: Compounds with an IC50 value less than 30 μM were deemed to be active; conditions: first bromodomain of Brd4, tetra-acetylated histone H4 peptide
T1 construct: made in house; host or cells: E. coli BL21(DE3)
In short: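 TR-FRET with N-terminally His-tagged bromodomains (200 nM, E. coli-expressed, Ni affinity and SEC-purified) and biotinylated tetra-acetylated histone H4 peptide (25–50 nM), detected with Eu-cryptate streptavidin and XL665 anti-His antibody. Buffer 30 mM HEPES pH 7.4, 320 mM KF, 0.08% BSA, 0.2% DMSO; 2 h RT. IC50 from decrease in 665/620 nm ratio.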

hApoA-1 mRNA = assay: Up-regulation of hApoA-1 mRNA transcription in Huh7 cells; assay type: cell-based, human; parameters: key: Active: Compounds with an EC170 value less than 30 μM are deemed to be active.; Not Active: Compounds with an EC170 value less than 30 μM are deemed to be active; conditions: 48 hrs treatment, ApoA-I mRNA
Procedure: In this example, ApoA-I mRNA in tissue culture cells was quantitated to measure the transcriptional up-regulation of ApoA-I when treated with a compound of the present disclosure.
Huh7 cells ([…] per well) were plated in a 96-well plate using 100 μL DMEM per well, (Gibco DMEM supplemented with penicillin/streptomycin and 10% FBS), 24 h before the addition of the compound of interest. After 48 hrs treatment, the spent media was removed from the Huh-7 cells and placed on ice (for immediate use) or at −80° C. (for future use) with the “LDH cytotoxicity assay Kit II” from Abcam. The cells remaining in the plate were rinsed with 100 μL PBS.
Then 85 μL of cell lysis solution was added to each well and incubated for 5-10 minutes at room temperature, to allow for complete cell lysis and detachment. mRNA was then prepared using the “mRNA Catcher PLUS plate” from Life Technologies, according to the protocol supplied. After the last wash, as much wash buffer as possible was aspirated without allowing the wells to dry. Elution Buffer (E3, 80 μL) was then added to each well. mRNA was then eluted by incubating the mRNA Catcher PLUS plate with Elution Buffer for 5 minutes at 68° C., and then 1 minute at 4° C. Catcher plates with mRNA eluted were kept on ice for use or stored at −80° C.
The eluted mRNA isolated was then used in a one-step real-time PCR reaction, using components of the Ultra Sense Kit together with Life Technologies primer-probe mixes. Real-time PCR data was analyzed, using the Ct values, to determine the fold induction of each unknown sample, relative to the control (that is, relative to the control for each independent DMSO concentration).
Compounds with an EC170 value less than 30 μM are deemed to be active.

c-myc = assay: Inhibition of c-myc expression in cancer cell lines (mRNA, real-time PCR); assay type: cell-based; parameters: key: Active: Compounds with an IC50 value less than 30 μM were deemed to be active; conditions: Human AML MV4-11 cells, 3 hours
In short: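 MV4-11 cells (2.5×10^4) exposed to compound or 0.1% DMSO for 3 h at 37° C, then lysed for mRNA isolation. c-myc and cyclophilin cDNAs co-amplified by duplex RT real-time PCR. IC50 from dose-response curve.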

Row | Compound | IL-6 activity (IC50 < 30 μM) (hIL-6 mRNA) | cell proliferation activity (IC50 < 30 μM) (Human AML MV-4-11 cells) | FRET activity (IC50 < 30 μM) (Brd4 bromodomain 1) | c-myc activity (IC50 < 30 μM) (c-myc) | ApoA-1 Activity (EC170 < 30 μM) (hApoA-1 mRNA)
1 | COc1cc(OC)c2c(=O)[nH]c(-c3ccc(OC4CNC4)c(-c4ccc(C#N)cc4)c3)nc2c1 [Example 18, 2′-(Azetidin-3-yloxy)-5′-(5,7-dimethoxy-4-oxo-3,4-dihydroquinazolin-2-yl)-[1,1′-biphenyl]-4-carbonitrile] | Active | Not Active | Active | Active | Active
2 | COc1cc(OC)c2c(=O)[nH]c(-c3ccc(OCCNC(C)C)c(-c4ccc(S(C)(=O)=O)cc4)c3)nc2c1 [Example 44, 2-(6-(2-(Isopropylamino)ethoxy)-4′-(methylsulfonyl)-[1,1′-biphenyl]-3-yl)-5,7-dimethoxyquinazolin-4(3H)-one] | Active | Active | Active | Active | Active
3 | COc1cc(OC)c2c(=O)[nH]c(-c3ccc(OC4CN(C)C4)c(-c4ccc(C#N)cc4)c3)nc2c1 [Example 19, 5′-(5,7-Dimethoxy-4-oxo-3,4-dihydroquinazolin-2-yl)-2′-((1-methylazetidin-3-yl)oxy)-[1,1′-biphenyl]-4-carbonitrile] | Active | Not Active | Active | Active | Active
4 | COc1cc(OC)c2c(=O)[nH]c(-c3ccc(OCCNC(C)C)c(-c4ccc([S+](C)[O-])cc4)c3)nc2c1 (centres unmarked) [Example 17, 2-(6-(2-(Isopropylamino)ethoxy)-4′-(methylsulfinyl)biphenyl-3-yl)-5,7-dimethoxyquinazolin-4(3H)-one] | Active | Active | Active | Active | Active
5 | COc1cc(F)cc2nc(-c3ccc(OC4CN(C)C4)c(-c4ccc([S+](C)[O-])cc4)c3)[nH]c(=O)c12 (centres unmarked) [Example 15, 7-Fluoro-5-methoxy-2-(6-((1-methylazetidin-3-yl)oxy)-4′-(methylsulfinyl)-[1,1′-biphenyl]-3-yl)quinazolin-4(3H)-one] | Active | Not Active | Active | Active | Active

Continued, in another order:

Row | IL-6 activity (IC50 < 30 μM) (hIL-6 mRNA) | cell proliferation activity (IC50 < 30 μM) (Human AML MV-4-11 cells) | FRET activity (IC50 < 30 μM) (Brd4 bromodomain 1) | c-myc activity (IC50 < 30 μM) (c-myc) | Compound | ApoA-1 Activity (EC170 < 30 μM) (hApoA-1 mRNA)
6 | Active | Not Active | Active | Active | COc1cc(OC)c2c(=O)[nH]c(-c3ccc(OCCO)c(-c4ccc(C(=O)N(C)C)cc4)n3)nc2c1 [Example 23, 4-(6-(5,7-Dimethoxy-4-oxo-3,4-dihydroquinazolin-2-yl)-3-(2-hydroxyethoxy)pyridin-2-yl)-N,N-dimethylbenzamide] | Active
7 | Active | Active | Active | Active | COc1cc(OC)c2c(=O)[nH]c(-c3ccc(OCCO)c(-c4ccc(C(=O)N(C)C)cc4Cl)n3)nc2c1 [Example 5, 3-Chloro-4-(6-(5,7-dimethoxy-4-oxo-3,4-dihydroquinazolin-2-yl)-3-(2-hydroxyethoxy)pyridin-2-yl)-N,N-dimethylbenzamide] | Active
8 | Active | Active | Active | Active | COc1cc(OC)c2c(=O)[nH]c(-c3ccc(OCCNC(C)C)c(-c4ccc(C(=O)N(C)C)cc4C)n3)nc2c1 [Example 4, 4-(6-(5,7-dimethoxy-4-oxo-3,4-dihydroquinazolin-2-yl)-3-(2-(isopropylamino)ethoxy)pyridin-2-yl)-N,N,3-trimethylbenzamide] | Active
9 | Active | Active | Active | Active | CCS(=O)(=O)c1ccc(-c2nc(-c3nc4cc(OC)cc(OC)c4c(=O)[nH]3)ccc2OCCN2CCOCC2)cc1 [Example 43, 2-(6-(4-(Ethylsulfonyl)phenyl)-5-(2-morpholinoethoxy)pyridin-2-yl)-5,7-dimethoxyquinazolin-4(3H)-one] | Active
10 | Active | Active | Active | Active | COc1cc(OC)c2c(=O)[nH]c(-c3ccc(OCCO)c(-c4ccc(S(C)(=O)=O)cc4C)n3)nc2c1 [Example 39, 2-(5-(2-Hydroxyethoxy)-6-(2-methyl-4-(methylsulfonyl)phenyl)pyridin-2-yl)-5,7-dimethoxyquinazolin-4(3H)-one] | Active
11 | Active | Active | Active | Active | COc1cc(OC)c2c(=O)[nH]c(-c3ccc(OCCNC(C)C)c(-c4ccc(C(=O)N(C)C)cc4Cl)n3)nc2c1 [Example 6, 3-Chloro-4-(6-(5,7-dimethoxy-4-oxo-3,4-dihydroquinazolin-2-yl)-3-(2-(isopropylamino)ethoxy)pyridin-2-yl)-N,N-dimethylbenzamide] | Active
12 | Active | Active | Active | Active | CCS(=O)(=O)c1ccc(-c2nc(-c3nc4cc(OC)cc(OC)c4c(=O)[nH]3)ccc2OCCN2CCCC2)cc1 [Example 42, 2-(6-(4-(Ethylsulfonyl)phenyl)-5-(2-(pyrrolidin-1-yl)ethoxy)pyridin-2-yl)-5,7-dimethoxyquinazolin-4(3H)-one] | Not Active
13 | Active | Not Active | Active | Not Active | COc1cc(OC)c2c(=O)[nH]c(-c3ccc(OCCO)c(-c4ccc(C(=O)N(C)C)cc4C)n3)nc2c1 [Example 3, 4-(6-(5,7-Dimethoxy-4-oxo-3,4-dihydroquinazolin-2-yl)-3-(2-hydroxyethoxy)pyridin-2-yl)-N,N,3-trimethylbenzamide] | Active

Source: patent US9765039B2, “Biaryl derivatives as bromodomain inhibitors” (Zenith Epigenetics Ltd., priority 2012, dated 2017)
